The record followed here is the supplement of paper PMC10307832.

Common to all, as to assay: relative viability (nuclei count vs DMSO), 5 days (fraction); higher = more cells survive
Compound in assay [1]: C1CC(C1)(C(=O)O)C(=O)O.[NH2-].[NH2-].[Pt+2] [Carboplatin] + CS(=O)(=O)CCNCc1ccc(-c2ccc3ncnc(Nc4ccc(OCc5cccc(F)c5)c(Cl)c4)c3c2)o1 [Lapatinib] (partner 2 µM)
The method, boiled down: (§1)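 Dosing by pin tool came one day after lung cancer cell lines were seeded in 1536-well plates, using either one drug or a fixed anchor-drug dose plus five library-drug doses (not always all listed) in √10 steps. After 5 days, nuclei were counted on 4× images. Relative viability is treated-well nuclei count divided by vehicle-well nuclei count, and values are medians of duplicate plates.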

Compound in assay [2]: C1CC(C1)(C(=O)O)C(=O)O.[NH2-].[NH2-].[Pt+2] [Carboplatin] + Nc1nc2[nH]cc(CCc3ccc(C(=O)N[C@@H](CCC(=O)O)C(=O)O)cc3)c2c(=O)[nH]1 [Pemetrexed] (partner 0.2 µM)
The method, boiled down: as §1

Compound in assay [3]: CC[C@H](C)N1C=C(C2=C(C=C(C=C21)C3=CN=C(C=C3)N4CCNCC4)C(=O)NCC5=C(C=C(NC5=O)C)C)C [GSK126] + CC(=O)Nc1cccc(-n2c(=O)n(C3CC3)c(=O)c3c(Nc4ccc(I)cc4F)n(C)c(=O)c(C)c32)c1 [Trametinib] (partner 0.02 µM)
The procedure, abridged:
as §1

Compound in assay [4]: NS(=O)(=O)OC[C@@H]1C[C@@H](n2ccc3c(N[C@H]4CCc5ccccc54)ncnc32)C[C@@H]1O [MLN4924] + Cc1cc(Nc2cc(N3CCN(C)CC3)nc(Sc3ccc(NC(=O)C4CC4)cc3)n2)n[nH]1 [Tozasertib] (partner 0.1 µM)
The method, boiled down:
as §1

In the case of UMC-11, the relative viability in assay [1] (first compound 0.08 µM) came to 1.01; in assay [1] (first compound 0.253 µM), 0.941; in assay [1] (first compound 0.8 µM) it was 1.07; in assay [1] (first compound 2.53 µM), 1.04; in assay [1] (first compound 8 µM), 0.847; in assay [2] (first compound 0.08 µM), 0.853. Moreover, the relative viability in assay [2] (first compound 0.253 µM) stood at 0.738; in assay [2] (first compound 0.8 µM) it was 0.802; in assay [2] (first compound 2.53 µM) it was 0.689; in assay [2] (first compound 8 µM), 0.62; in assay [3] (first compound 0.08 µM), 0.744; in assay [3] (first compound 0.253 µM), 0.774. Further, the relative viability in assay [3] (first compound 0.8 µM) turned out to be 0.771; in assay [3] (first compound 2.53 µM), 0.714; in assay [3] (first compound 8 µM), 0.728; in assay [4] (first compound 0.04 µM), 0.205; in assay [4] (first compound 0.1265 µM), 0.212; in assay [4] (first compound 0.4 µM), 0.215. Also, the values for the relative viability in assay [4] (first compound 1.265 µM) and in assay [4] (first compound 4 µM) were 0.19 and 0.184, respectively.
